Experimental data: patent US20210269824A1, “VIRAL VECTOR FOR TREATING AUTOIMMUNE DISEASE AND DIABETES AND CONSTRUCTION METHOD AND APPLICATION THEREOF” (Guangzhou Huazhen Pharmaceutical Co., Ltd., priority 2017, published 2021)

Tested on: peripheral blood CD4 T-cells of patients with type 1 diabetes
Assay: Differentiation of peripheral blood CD4 T-cells (Th1, Th2, Th17, Treg) after in vitro treatment, flow cytometry
Format: cell-based, human
Conditions: 100 μM, 24 h in vitro, lymphocytes of type 1 diabetes patients
Procedure: (1) 5 ml peripheral blood was extracted from patients and normal humans separately, diluted twice with PBS of pH 7.2, and then mixed with lymphocyte separation solution Lymphoprep (Axis-Shield, Norway), centrifuged at 3500 rpm for 20 min, then the lymphocytes were taken out and cultured in RPMI1640 medium (purchased from Gibco) to obtain the cultured lymphocytes. The above cultured lymphocytes were treated in vitro with DHA (docosahexaenoic acid) at a final concentration of 100 μM, EPA (eicosapentaenoic acid) at a final concentration of 100 μM, and AA (arachidonic acid) at a final concentration of 100 μM for 24 h, respectively. After treating, changes in intracellular cytokines of CD4 T-cells in the above lymphocytes were detected. (The above DHA, EPA and AA are all purchased from Sigma).
(2) labeling of intracellular cytokines of CD4 T-cells: The lymphocytes (number up to 1×10^5) from patients and normal humans in the above steps were placed to different marked tubes. Labeled fluorescent monoclonal antibodies CD3 (0.1 μg) and CD8 (0.1 μg) were added into each tube. Then 1 ml paraformaldehyde having a concentration of 4% by weight was added into each tube, mixed well and incubated at room temperature (20° C.-30° C.) for 20 min. 1 ml intraprep permeabilization reagent, i.e. 0.5% saponin, was added, incubated at room temperature (20° C.-30° C.) for 30 min, then centrifuged for 5 min at 300 g, 4° C. to obtain a supernatant and a precipitate. The supernatant was removed, and 80 μl 0.5% saponin was added to re-suspend the precipitate to obtain suspensions. The obtained suspensions were labeled respectively with IFN-γ fluorescent monoclonal antibody (0.1 μg), IL-17 fluorescent monoclonal antibody (0.1 μg), IL-4 fluorescent monoclonal antibody (0.1 μg), and Foxp3 fluorescent monoclonal antibody (0.1 μg), and incubated in dark place at 4° C. for 1 h (for the suspension labeled with Foxp3 fluorescent monoclonal antibody, incubation and rupture took 8 h). The labeled cells were washed three times with 0.5% saponin, centrifuged for 5 min at 300 g, 4° C. to obtain a supernatant and a precipitate. The supernatant was removed, and the precipitate was fixed with paraformaldehyde having a mass concentration of 1%. After 24 h, percentages of Th1, Th2, Th17 and Treg cells were analyzed with a flow cytometer Accuri-C6. The antibodies and instruments used in the above steps were all purchased from BD Bioscience.
The CON in FIG. 2 represents a control group, i.e. the lymphocytes of peripheral blood from normal humans not treated with DHA, EPA or AA. The CON in FIG. 3 represents a control group, i.e. the lymphocytes of peripheral blood from patients not treated with DHA, EPA, or AA. In FIG. 2, figures A, B, C, D, and E show percentages of Th1, Th2, Th1/Th2, Th17 and Treg cells in peripheral blood CD4 T-cells of normal subjects, respectively, and figures F, G, H, I and J show percentages of Th1, Th2, Th1/Th2, Th17 and Treg cells in peripheral blood CD4 T-cells of patients, respectively. In FIG. 3, figures A, B, C, and D show percentages of transcription factors T-bet, GATA3, RORγT, and Foxp3 in peripheral blood CD4 T-cells of patients, respectively. As shown in FIGS. 2-3, in peripheral blood CD4 T-cells of patients with type 1 diabetes treated with DHA, EPA and AA respectively, the percentages of Th1 and Th17 cells decreased, and the percentages of Th2 and Treg cells increased, and the ratio of Th1/Th2 and the ratio of T17/Treg were rebalanced.

Structure (SMILES): CCCCC/C=C\C/C=C\C/C=C\C/C=C\CCCC(=O)O [AA, arachidonic acid]
- ratio of T17/Treg: rebalanced
- ratio of Th1/Th2: rebalanced
- percentage of Th1 cells (vs untreated): decreased
- percentage of Th2 cells (vs untreated): increased
- percentage of Th17 cells (vs untreated): decreased
- percentage of Treg cells (vs untreated): increased
